Read-outs that look alike come from different tables or passages of the source.
Biological target: T1, IRAK4 (Homo sapiens, UniProt Q9NWZ3)
T1 construct: Degradation of IRAK4 in OCI-LY10 was quantitatively measured using Meso Scale Discovery technology; endogenous in cells; host or cells: OCI-LY10
T1 sequence (Q9NWZ3 1-460): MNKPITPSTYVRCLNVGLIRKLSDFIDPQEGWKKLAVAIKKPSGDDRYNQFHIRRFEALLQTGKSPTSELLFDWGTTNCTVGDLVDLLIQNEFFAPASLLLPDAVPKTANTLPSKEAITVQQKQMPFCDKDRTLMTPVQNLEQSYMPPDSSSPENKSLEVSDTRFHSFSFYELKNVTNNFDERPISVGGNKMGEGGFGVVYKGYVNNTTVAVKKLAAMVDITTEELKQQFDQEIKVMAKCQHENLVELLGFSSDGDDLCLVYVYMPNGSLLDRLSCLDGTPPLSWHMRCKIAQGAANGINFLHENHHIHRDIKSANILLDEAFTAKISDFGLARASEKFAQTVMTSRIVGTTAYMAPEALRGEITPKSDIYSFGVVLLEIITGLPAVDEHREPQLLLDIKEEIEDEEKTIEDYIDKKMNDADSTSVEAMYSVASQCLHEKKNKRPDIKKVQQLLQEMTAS
Assay: IRAK4 MSD Degradation in OCI-LY10
Format: cell-based
Conditions: OCI-LY10 cells, MSD
Outline: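 DC50, from a three-parameter logistic fit and reported as letter bins A (<0.01 μM), B, C, D (>0.2 μM or not tested), reflects IRAK4 loss measured by MSD electrochemiluminescence in OCI-LY10 lysates. Treatment: 8 doses, 1:3 steps, top 1 to 10 μM, 4 to 24 h, 37 °C.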

[1] = 4 hrs incubation, read-out: IRAK4 degradation in OCI-LY10 at 4 hrs: DC50
[2] = 24 hrs incubation, read-out: IRAK4 degradation in OCI-LY10 at 24 hrs: DC50

| DC50 [1] [nM] | DC50 [2] [nM] | SMILES |
| --- | --- | --- |
| > 200 | > 200 | Cn1c(=O)n(C2CCC(=O)NC2=O)c2cccc(C3CCN(C[C@H]4CC[C@H](n5cc6cc(NC(=O)c7cccc(C(F)(F)F)n7)c(C#N)cc6n5)CC4)CC3(F)F)c21 (stereo partly drawn) [I-490] |
| > 200 | > 200 | CO[C@@H]1CN(c2cccc3c2n(C)c(=O)n3C2CCC(=O)NC2=O)C[C@@H]1N(C)C[C@H]1CC[C@H](n2cc3cc(NC(=O)c4cccc(C(F)(F)F)n4)ccc3n2)CC1 (stereo partly drawn) [I-491] |
| > 200 | > 200 | CO[C@H]1CN(c2cccc3c2n(C)c(=O)n3C2CCC(=O)NC2=O)C[C@@H]1N(C)C[C@H]1CC[C@H](n2cc3cc(NC(=O)c4cccc(C(F)(F)F)n4)ccc3n2)CC1 (stereo partly drawn) [I-492] |
| > 200 | > 200 | CO[C@H]1CN(c2cccc3c2n(C)c(=O)n3C2CCC(=O)NC2=O)C[C@H]1N(C)C[C@H]1CC[C@H](n2cc3cc(NC(=O)c4cccc(C(F)(F)F)n4)ccc3n2)CC1 (stereo partly drawn) [I-493] |
| > 200 | > 200 | CO[C@@H]1CN(c2cccc3c2n(C)c(=O)n3C2CCC(=O)NC2=O)C[C@H]1N(C)C[C@H]1CC[C@H](n2cc3cc(NC(=O)c4cccc(C(F)(F)F)n4)ccc3n2)CC1 (stereo partly drawn) [I-494] |
| > 200 | > 200 | CO[C@@H]1CN(c2cccc3c2n(C)c(=O)n3C2CCC(=O)NC2=O)CC[C@H]1N(C)C[C@H]1CC[C@H](n2cc3cc(NC(=O)c4cccc(C(F)(F)F)n4)ccc3n2)CC1 (stereo partly drawn) [I-495] |
| > 200 | > 200 | CO[C@H]1CN(c2cccc3c2n(C)c(=O)n3C2CCC(=O)NC2=O)CC[C@@H]1N(C)C[C@H]1CC[C@H](n2cc3cc(NC(=O)c4cccc(C(F)(F)F)n4)ccc3n2)CC1 (stereo partly drawn) [I-496] |
| > 200 | > 200 | CO[C@@H]1CN(c2cccc3c2n(C)c(=O)n3C2CCC(=O)NC2=O)CC[C@@H]1N(C)C[C@H]1CC[C@H](n2cc3cc(NC(=O)c4cccc(C(F)(F)F)n4)ccc3n2)CC1 (stereo partly drawn) [I-497] |
| > 200 | > 200 | CO[C@H]1CN(c2cccc3c2n(C)c(=O)n3C2CCC(=O)NC2=O)CC[C@H]1N(C)C[C@H]1CC[C@H](n2cc3cc(NC(=O)c4cccc(C(F)(F)F)n4)ccc3n2)CC1 (stereo partly drawn) [I-498] |
| > 200 | > 200 | Cn1c(=O)n(C2CCC(=O)NC2=O)c2cccc(N3CC(F)(F)C34CN(C[C@H]3CC[C@H](n5cc6cc(NC(=O)c7cccc(C(F)(F)F)n7)ccc6n5)CC3)C4)c21 (stereo partly drawn) [I-499] |
| > 200 | > 200 | Cn1c(=O)n(C2CCC(=O)NC2=O)c2cccc(N3CC4(C3)N(C[C@H]3CC[C@H](n5cc6cc(NC(=O)c7cccc(C(F)(F)F)n7)ccc6n5)CC3)CC4(F)F)c21 (stereo partly drawn) [I-500] |
| > 200 | > 200 | Cn1c(=O)n(C2CCC(=O)NC2=O)c2cccc(C#CCN3CC4(C3)N(C[C@H]3CC[C@H](n5cc(NC(=O)c6cnn7ccc(N8CCCC8)nc67)c(C(F)F)n5)CC3)CC4(F)F)c21 (stereo partly drawn) [I-501] |
| > 200 | > 200 | CN(C[C@H]1CC[C@H](n2cc(NC(=O)c3cnn4ccc(N5C[C@H]6C[C@@H]5CO6)nc34)c(C(F)F)n2)CC1)C1CCN(c2cccc3c2n(C)c(=O)n3C2CCC(=O)NC2=O)CC1(F)F (stereo partly drawn) [I-502] |

Further lines, the compound ahead of its results:

| SMILES | DC50 [1] [nM] | DC50 [2] [nM] |
| --- | --- | --- |
| COc1cc2nn([C@H]3CC[C@H](CN4CCC(c5ccc6c(c5)n(C)c(=O)n6C5CCC(=O)NC5=O)C(F)(F)C4)CC3)cc2cc1NC(=O)c1cccc(C(F)(F)F)n1 (stereo partly drawn) [I-463] | > 200 | > 200 |
| Cn1c(=O)n(C2CCC(=O)NC2=O)c2ccc(C3=CCN(C[C@H]4CC[C@H](n5cc6cc(NC(=O)c7cccc(C(F)(F)F)n7)ccc6n5)CC4)CC3(F)F)cc21 (stereo partly drawn) [I-464] | > 200 | > 200 |
| Cn1c(=O)n(C2CCC(=O)NC2=O)c2ccc(C3CCN(C[C@H]4CC[C@H](n5cc6cc(NC(=O)c7cccc(C(F)(F)F)n7)ccc6n5)CC4)CC3(F)F)cc21 (stereo partly drawn) [I-465] | > 200 | > 200 |
| COc1cc2nn([C@H]3CC[C@H](CN4CC=C(c5cccc6c(N7CCC(=O)NC7=O)cncc56)C(F)(F)C4)CC3)cc2cc1NC(=O)c1cccc(C(F)(F)F)n1 [I-466] | > 200 | > 200 |
| COc1cc2nn([C@H]3CC[C@H](CN4CCC(c5cccc6c(N7CCC(=O)NC7=O)cncc56)C(F)(F)C4)CC3)cc2cc1NC(=O)c1cccc(C(F)(F)F)n1 (stereo partly drawn) [I-467] | > 200 | > 200 |
| O=C1CCN(c2cncc3c(C4=CCN(C[C@H]5CC[C@H](n6cc7cc(NC(=O)c8cccc(C(F)(F)F)n8)ccc7n6)CC5)CC4(F)F)cccc23)C(=O)N1 [I-468] | > 200 | > 200 |
| O=C1CCN(c2cncc3c(C4CCN(C[C@H]5CC[C@H](n6cc7cc(NC(=O)c8cccc(C(F)(F)F)n8)ccc7n6)CC5)CC4(F)F)cccc23)C(=O)N1 (stereo partly drawn) [I-469] | > 200 | > 200 |
| COc1cc2nn([C@H]3CC[C@H](CN4CC=C(c5ccc6c(N7CCC(=O)NC7=O)cncc6c5)C(F)(F)C4)CC3)cc2cc1NC(=O)c1cccc(C(F)(F)F)n1 [I-470] | > 200 | > 200 |
| COc1cc2nn([C@H]3CC[C@H](CN4CCC(c5ccc6c(N7CCC(=O)NC7=O)cncc6c5)C(F)(F)C4)CC3)cc2cc1NC(=O)c1cccc(C(F)(F)F)n1 (stereo partly drawn) [I-471] | > 200 | > 200 |
| O=C1CCN(c2cncc3cc(C4=CCN(C[C@H]5CC[C@H](n6cc7cc(NC(=O)c8cccc(C(F)(F)F)n8)ccc7n6)CC5)CC4(F)F)ccc23)C(=O)N1 [I-472] | > 200 | > 200 |
| O=C1CCN(c2cncc3cc(C4CCN(C[C@H]5CC[C@H](n6cc7cc(NC(=O)c8cccc(C(F)(F)F)n8)ccc7n6)CC5)CC4(F)F)ccc23)C(=O)N1 (stereo partly drawn) [I-473] | > 200 | > 200 |
| CN(C[C@H]1CC[C@H](n2cc3cc(NC(=O)c4cccc(C(F)(F)F)n4)ccc3n2)CC1)C1CCN(c2cccc3c2n(C)c(=O)n3C2CCC(=O)NC2=O)CC1(F)F (stereo partly drawn) [I-474] | > 200 | > 200 |
| COc1cc2nn([C@H]3CC[C@H](CN(C)C4CCN(c5cccc6c5n(C)c(=O)n6C5CCC(=O)NC5=O)CC4(F)F)CC3)cc2cc1NC(=O)c1cccc(C(F)(F)F)n1 (stereo partly drawn) [I-475] | > 200 | > 200 |
| CN(C[C@H]1CC[C@H](n2cc3cc(NC(=O)c4cccc(C(F)(F)F)n4)c(C(F)F)cc3n2)CC1)C1CCN(c2cccc3c2n(C)c(=O)n3C2CCC(=O)NC2=O)CC1(F)F (stereo partly drawn) [I-476] | > 200 | > 200 |
| CN(C[C@H]1CC[C@H](n2cc3cc(NC(=O)c4cccc(C(F)(F)F)n4)c(C#N)cc3n2)CC1)C1CCN(c2cccc3c2n(C)c(=O)n3C2CCC(=O)NC2=O)CC1(F)F (stereo partly drawn) [I-477] | > 200 | > 200 |
| CN(C[C@H]1CC[C@H](n2cc3cc(NC(=O)c4cccc(C(F)(F)F)n4)c([S+](C)[O-])cc3n2)CC1)C1CCN(c2cccc3c2n(C)c(=O)n3C2CCC(=O)NC2=O)CC1(F)F (stereo partly drawn) [I-478] | > 200 | > 200 |
| CN(C[C@H]1CC[C@H](n2cc3cc(NC(=O)c4cccc(C(F)(F)F)n4)c(S(C)(=O)=O)cc3n2)CC1)C1CCN(c2cccc3c2n(C)c(=O)n3C2CCC(=O)NC2=O)CC1(F)F (stereo partly drawn) [I-479] | > 200 | > 200 |
| CN(C[C@H]1CC[C@H](n2cc3cc(NC(=O)c4cccc(C(F)(F)F)n4)c(S(C)(=N)=O)cc3n2)CC1)C1CCN(c2cccc3c2n(C)c(=O)n3C2CCC(=O)NC2=O)CC1(F)F (stereo partly drawn) [I-480] | > 200 | > 200 |
| CN(C[C@H]1CC[C@H](n2cc(NC(=O)c3cnn4cccnc34)c(C(F)F)n2)CC1)C1CCN(c2ccc3c(c2)n(C)c(=O)n3C2CCC(=O)NC2=O)CC1(F)F (stereo partly drawn) [I-481] | > 200 | > 200 |
| CN(C[C@H]1CC[C@H](n2cc(NC(=O)c3cnn4cccnc34)c(C(F)F)n2)CC1)C1CCN(c2cccc3c2n(C)c(=O)n3C2CCC(=O)NC2=O)CC1F (stereo partly drawn) [I-482] | > 200 | > 200 |
| CN(C[C@H]1CC[C@H](n2cc(NC(=O)c3cnn4cccnc34)c(C(F)F)n2)CC1)C1C(F)CN(c2cccc3c2n(C)c(=O)n3C2CCC(=O)NC2=O)CC1F (stereo partly drawn) [I-483] | > 200 | > 200 |
| CN(C)c1ccn2ncc(C(=O)Nc3cn([C@H]4CC[C@H](CN(C)C5CCN(c6cccc7c6n(C)c(=O)n7C6CCC(=O)NC6=O)CC5(F)F)CC4)nc3C(F)F)c2n1 (stereo partly drawn) [I-484] | > 200 | 10 to 100 |
| CN(C[C@H]1CC[C@H](n2cc(NC(=O)c3cnn4cccnc34)c(C(F)F)n2)CC1)C1CCN(c2cccc3c2n(C)c(=O)n3C2CCC(=O)NC2=O)CC1O (stereo partly drawn) [I-486] | > 200 | > 200 |
| CN(C[C@]1(O)CC[C@@H](n2cc(NC(=O)c3cnn4cccnc34)c(C(F)F)n2)CC1)C1CCN(c2cccc3c2n(C)c(=O)n3C2CCC(=O)NC2=O)CC1 (stereo partly drawn) [I-487] | > 200 | > 200 |
| Cn1c(=O)n(C2CCC(=O)NC2=O)c2cccc(C3CCN(C[C@H]4CC[C@H](n5cc6cc(NC(=O)c7cccc(C(F)(F)F)n7)ncc6n5)CC4)CC3(F)F)c21 (stereo partly drawn) [I-488] | > 200 | > 200 |
| Cn1c(=O)n(C2CCC(=O)NC2=O)c2cccc(C3CCN(C[C@H]4CC[C@H](n5cc6cc(NC(=O)c7cccc(C(F)(F)F)n7)ccc6n5)CC4)CC3(F)F)c21 (stereo partly drawn) [I-489] | > 200 | > 200 |
